Assay [1] has as its target T1, Aromatase (Homo sapiens, UniProt P11511).
T1 sequence (P11511 whole entry): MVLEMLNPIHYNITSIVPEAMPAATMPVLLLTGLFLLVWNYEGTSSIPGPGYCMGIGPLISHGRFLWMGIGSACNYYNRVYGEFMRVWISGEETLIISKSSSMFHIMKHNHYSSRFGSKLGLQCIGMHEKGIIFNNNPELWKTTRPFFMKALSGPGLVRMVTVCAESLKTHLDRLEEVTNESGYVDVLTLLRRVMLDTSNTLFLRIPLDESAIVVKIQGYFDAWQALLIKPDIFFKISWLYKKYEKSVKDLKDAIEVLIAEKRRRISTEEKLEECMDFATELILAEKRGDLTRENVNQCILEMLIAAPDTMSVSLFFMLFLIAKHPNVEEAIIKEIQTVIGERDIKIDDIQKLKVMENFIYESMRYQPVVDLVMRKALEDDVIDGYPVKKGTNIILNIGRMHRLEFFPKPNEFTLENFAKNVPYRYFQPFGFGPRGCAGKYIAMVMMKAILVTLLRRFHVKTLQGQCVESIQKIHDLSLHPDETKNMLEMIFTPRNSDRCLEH
The assay can be described thus: Irreversible inhibition of recombinant human CYP19A1 assessed as inhibition of DBF conversion to fluorescein by-product by fluorometry.

In assay [2] the target is T1, Aromatase. The assay can be described thus: Reversible inhibition of recombinant human CYP19A1 assessed as inhibition of DBF conversion to fluorescein by-product by fluorometry.
Assay [3] has as its target T1, Aromatase.
Description: Inhibition of recombinant human CYP19A1 assessed as inhibition of DBF conversion to fluorescein by-product by fluorometry

`CCOC(=O)c1nnn(Cc2ccccc2)c1-c1ccccc1`: the Ki at Aromatase [1] came out at 1410 nM.
For `CCOC(=O)c1nnn(Cc2ccccc2)c1-c1ccc(Br)cc1`, the Ki at Aromatase [2] turned out to be 640 nM.
Same read-out and setting: then `CCOC(=O)c1nnn(Cc2cccc(Br)c2)c1-c1ccc(Br)cc1`, with 20 nM.
In turn, `CCOC(=O)c1nnn(Cc2ccccc2)c1-c1ccc(C)cc1` yielded a Ki on Aromatase [3] of 710 nM.
Molecule `CCOC(=O)c1nnn(Cc2ccccc2)c1-c1ccc2c(c1)OCO2` gave a Ki at Aromatase [3] of 710 nM.
`CCOC(=O)c1nnn(Cc2ccccc2)c1-c1ccc(Cl)cc1`: the Ki at Aromatase [3] worked out at 360 nM.
The same measure, in the same setting: then `CCOC(=O)c1nnn(Cc2cccc(Br)c2)c1-c1ccccc1`, with 150 nM.

Values taken from ChEMBL document CHEMBL3352142, “Discovery of a new class of cinnamyl-triazole as potent and selective inhibitors of aromatase (cytochrome P450 19A1)” (Bioorg Med Chem Lett, 2014).
